Earlier results on one molecule are cited in patent US10835538B2, “Method of treating benign prostatic hyperlasia with antibiotics” (Nymox Corporation, priority 2018, dated 2020).

Molecules are shown by their SMILES.

Turning to `CC(COc1ccccc1)N(CCCl)Cc1ccccc1` (centres unmarked) [phenoxybenzamine], under “human, in vivo”, the “Cases treated in which side effects cannot be tolerated and therapy has to be abandoned” value is “about 10%”. For the same molecule, where the note is “hypotension, dizziness, faintness, tachycardia, weakness, retrograde or absent ejaculation”, the “Patients treated for BPH in whom side effects are present” value is recorded as “approximately 30%”.
